One compound from patent US20210188773A1, “NOVEL POLYMOPHS OF S-NITROSOCAPTOPRIL (CAP-NO) AND ITS PROCESS FOR PREPARATION” (FUZHOU UNIVERSITY, priority 2018, published 2021) can be followed below.

In the test the test system is Pulmonary hypertension (PAH) rats. The test is described as follows: Effect on monocrotaline (MCT) pulmonary hypertension (PAH) model rats. Type of test: in vivo, rat.

Procedure: Pulmonary hypertension (PAH) rats, being monocrotaline (MCT) intraperitoneal injected, were divided into 4 groups: control group (n=7), 50 mg/kg captopril group (n=7), 10 mg/kg S-nitrosocaptopril group (n=7), 50 mg/kg S-nitrosocaptopril group (n=7) and health group (n=9). Rats of all groups were orally administered once a day for 30 days.

For `C[C@H](CS)C(=O)N1CCC[C@H]1C(=O)O` [captopril, Captopril], where the note is “50 mg/kg oral once a day”, the “average pleural effusion of dead rats” value is 3.3 mL and the “mean right ventricular mass index (RVMI)” value was found to be 53.8%. Also, for the setting “50 mg/kg oral once a day for 30 days”, the “number of rats remaining (from 7)” value worked out at 3.
